We go through six compounds from patent US10654896B2, “FoxP3-binding peptides and uses thereof” (FUNDACIÓN PARA LA INVESTIGACIÓN MÉDICA APLICADA, priority 2016, dated 2020).

Where a SMILES comes first, the peptide text is derived from it. [ ]: non-standard residue; d: D form.

The subject of one assay is murine Treg (CD25+ T cells). Nature of the assay: In vitro Treg suppression assay ([3H]-thymidine, anti-CD3). The format is cell-based, BALB/c mice. The conditions noted are these: peptide 100 μM. The method, then:
Spleen was harvested from BALB/c mice (Harlan Laboratories) and homogenized with a 1-ml syringe through a 100-μm cell strainer into a 50-ml conical tube and rinsed two times with PBS (Calcium free) to recover all cells. Cell homogenate was centrifuged at 300×g for 10 min and resuspended homogenate in 1 ml ACK Lysis buffer solution per spleen. Gently swirled for 2 min and then the reaction was quenched by adding 12 ml of PBS.
Cells were centrifuged at 300×g for 10 min and purification of CD25− and CD25+ cells was carried out using magnetic beads (Miltenyi, CD25 microbead kit MOUSE, Ref 130-091-072)), following manufacturer's instructions. After labelling the cells, they were purified using Automacs-Pro device following manufacturer's instructions. Negative fraction corresponded to CD25− cells, which was used as effector Tconv cells. Positive fraction corresponded to CD25+ T cells that was used as Treg cells. Flow cytometry using anti-CD25-APC labeled and anti-CD4-FITC labelled antibodies was used to confirm the purity of isolated cells. Foxp3 expression was analyzed using the anti-Foxp3 staining antibody labelled with APC according to manufacturer's instructions (eBioscience). Purified cells were washed, resuspended in culture medium and diluted in T-cell culture medium (RPMI 1640, supplemented with 10% Fetal bovine serum and antibiotics) at a concentration of 2×10^5/ml (for Tregs) and 2×10^6/ml (for Tconv), for the assay (See below)
The first in vitro assays to measure regulatory T-cell (Treg) function were described by two groups over a decade ago. […] With this knowledge, it was shown that CD4+CD25+ T cells could potently suppress the proliferation of activated CD4+CD25− and CD8+ T cells when the populations were cocultured in vitro. The following protocol describes a basic type of in vitro Treg suppression assay where Treg function is measured in the absence of antigen-presenting cells (APCs). In this protocol, activation is mediated by anti-CD3 antibodies and includes only two cell types, the target Tconv and Tregs. In this protocol, the experiment is setup in a 96-well round-bottom plate in a total volume of 200 μl. All reagents are prepared at four times their desired final concentration and added to assay in 50 μl such that the total volume is 200 μl, thus obtaining the desired final concentration of reactives. Purified Tregs and Tconv prepared as described above were diluted and adjusted in T-cell culture medium to 2×10^5/ml and 2×10^6/ml, respectively. In round-bottom 96-well plate, Tregs and Tconv were added in 50 μl of culture media each (RPMI 1640, supplemented with 10% Fetal bovine serum, and antibiotics). Anti-CD3 antibody was added in 50 μl (final concentration will be 2.5 μg/ml) as a stimulus to induce T cell proliferation. 50 μL of each one of the peptides to be tested were added in the corresponding wells at a concentration of 100 μM and those which provided the best results were tested again at lower concentrations to determine the IC50 value. The final volume was 200 μl in all wells. Tconv alone, Tconv plus anti-CD3, Tconv+anti-CD3+ Treg or Tconv+anti-CD3+Treg+peptides were tested by quadruplicate. Tconv plus anti-CD3 with no Treg was used to determine maximum proliferation of Tconv whereas Tconv+anti-CD3+ Treg was used to determine Treg inhibition. Plates were incubated at 37° C., 5% CO2 for 72 h and then pulsed with 0.1 μCi [^3H]-thymidine (in 25 μl of culture medium per well). After 8 h of incubation, cell cultures were harvested with a cell harvester (Perkin Elmer) and using unifilter plates. Plates were then dried at 50° C., and scintillation reagent (25 μl)(Microscint, Perkin Elmer) was added to each well. Counts per minute (cpm) were determined with a direct beta counter (TopCount, Perkin Elmer).
The results of in vitro Treg suppression assays are most commonly reported as cpm when [^3H]-thymidine is incorporated into proliferating cells. […]
For H-RDFQSFRKMWPFFAM-OH [compound 1], the “Treg inhibition - % inhibition (100 μM)” value is given as 115.6%.

Still in this assay, the particulars now being: read-out: IC50 (peptide concentration able to inhibit 50% of Treg activity).
Turning to `CSCC[C@H](NC(=O)[C@H](C)NC(=O)[C@H](Cc1ccccc1)NC(=O)[C@H](Cc1ccccc1)NC(=O)[C@@H]1CCCN1C(=O)[C@H](Cc1c[nH]c2ccccc12)NC(=O)[C@H](CCSC)NC(=O)[C@H](CCCCN)NC(=O)[C@H](CCCNC(=N)N)NC(=O)[C@H](Cc1ccccc1)NC(=O)[C@H](CO)NC(=O)[C@H](CCC(N)=O)NC(=O)[C@H](Cc1ccccc1)NC(=O)[C@@H](CC(=O)O)NC(=O)[C@@H](N)CCCNC(=N)N)C(=O)O` [compound 3] (H-R[dD]FQSFRKMWPFFAM-OH), the IC50 worked out at 27.2 µM. Same read-out and setting: as for `CSCC[C@H](NC(=O)[C@H](C)NC(=O)[C@H](Cc1ccccc1)NC(=O)[C@H](Cc1ccccc1)NC(=O)[C@@H]1CCCN1C(=O)[C@H](Cc1c[nH]c2ccccc12)NC(=O)[C@H](CCSC)NC(=O)[C@H](CCCCN)NC(=O)[C@H](CCCNC(=N)N)NC(=O)[C@H](Cc1ccccc1)NC(=O)[C@H](CO)NC(=O)[C@H](CCC(N)=O)NC(=O)[C@H](Cc1ccccc1)NC(=O)[C@H](C)NC(=O)[C@H](N)CCCNC(=N)N)C(=O)O` [compound 46] (H-[dR]AFQSFRKMWPFFAM-OH; N-terminus and C-terminus assumed), the figure is 12.5 µM; as for `CSCC[C@H](NC(=O)[C@H](CCCCN)NC(=O)[C@H](CCCNC(=N)N)NC(=O)[C@H](Cc1ccccc1)NC(=O)[C@H](CO)NC(=O)[C@H](CCC(N)=O)NC(=O)[C@H](Cc1ccccc1)NC(=O)[C@H](C)NC(=O)[C@@H](N)CCCNC(=N)N)C(=O)N[C@@H](Cc1c[nH]c2ccccc12)C(=O)N1CCC[C@H]1C(=O)N[C@@H](Cc1ccccc1)C(=O)N[C@@H](Cc1ccccc1)C(=O)N[C@@H](C)C(=O)N[C@H](CCSC)C(=O)O` [compound 47] (H-RAFQSFRKMWPFFA[dM]-OH; N-terminus and C-terminus assumed), 35 µM. Still for that read-out and setting: next, `CSCC[C@H](NC(=O)[C@H](CCCCN)NC(=O)[C@H](CCCNC(=N)N)NC(=O)[C@H](Cc1ccccc1)NC(=O)[C@H](CO)NC(=O)[C@H](CCC(N)=O)NC(=O)[C@H](Cc1ccccc1)NC(=O)[C@H](C)NC(=O)[C@H](N)CCCNC(=N)N)C(=O)N[C@@H](Cc1c[nH]c2ccccc12)C(=O)N1CCC[C@H]1C(=O)N[C@@H](Cc1ccccc1)C(=O)N[C@@H](Cc1ccccc1)C(=O)N[C@@H](C)C(=O)N[C@H](CCSC)C(=O)O` [compound 48] (H-[dR]AFQSFRKMWPFFA[dM]-OH; N-terminus and C-terminus assumed): 20 µM; `CSCC[C@@H]1NC(=O)[C@H](C)NC(=O)[C@H](Cc2ccccc2)NC(=O)[C@H](Cc2ccccc2)NC(=O)[C@@H]2CCCN2C(=O)[C@H](Cc2c[nH]c3ccccc23)NC(=O)[C@H](CCSC)NC(=O)[C@H](CCCCN)NC(=O)[C@H](CCCNC(=N)N)NC(=O)[C@H](Cc2ccccc2)NC(=O)[C@H](C)NC(=O)[C@H](CCC(N)=O)NC(=O)[C@H](Cc2ccccc2)NC(=O)[C@H](C)NC(=O)[C@H](CCCNC(=N)N)NC1=O` [compound 50] (cyclo(RAFQAFRKMWPFFAM)): 0.8 µM.

H-RDFQSFRKMWPFFAM-OH [compound 1]: the IC50 stood at 38.3 µM.
